Consider 2 molecules from patent US10350202B2, “Composition and method for treating skin conditions” (442 Ventures, LLC, priority 2010, dated 2019).

For this assay, the system named is warts. Put plainly: In vivo treatment of warts. As to conditions: topical application to warts. Further details: species or system human. As for the experimental part:
A composition including an imidazoquinoline compound; and a retinoid agent was tested in vivo. Imiquimod (5% (wt/wt)) and tazarotene (0.1% (wt/wt) were combined in a 1:1 ratio. The resulting composition was topically applied to individual warts in approximately 30 patients. The patients had various types of warts (thick and thin) in varying locations including palms, soles, hands, legs, feet, trunk, and extremities (including periungual). The composition could be used occluded or non-occluded, at the patient's option.

Turning to `CC(C)Cn1cnc2c(N)nc3ccccc3c21` [imiquimod, 1-(2-methylpropyl)-1H-imidpzo[4,5-c]quinolin-4-amine], the “treatment result on warts (in words)” value was “not as efficacious”.

As for `CCOC(=O)c1ccc(C#Cc2ccc3c(c2)C(C)(C)CCS3)nc1` [tazarotene], the “treatment result on warts (in words)” value is reported as “not as efficacious”.
